The values below come from PMC10253456, “Investigating the Contribution of Major Drug-Metabolising Enzymes to Possum-Specific Fertility Control” (International Journal of Molecular Sciences, 2023).

SMILES strings stand for the structures. Read-outs that look alike come from different tables or passages of the source.

Data set [1] concerns UGT2B. The settings on record: avian; compound at estimated 2-fold IC50.
Data set [2] relates to UGT2B (heading: UGT2B4). Description: in vitro. The settings on record: avian (mallards and a swan), pH 7.4.
Data set [3] has as its system UGT2B. Description: p-nitrophenol glucuronidation activity in pooled human liver microsomes. On the technique in general: Liver microsomes are vesicles of endoplasmic reticulum, rich in cytochrome P450 enzymes.
Data set [4] has as its system CYP3A. Description: CYP3A catalytic activity (erythromycin N-demethylation) in mouse liver microsomes. The settings on record: for Percent control catalytic activity at estimated IC50 / Percent control catalytic activity at estimated 2-fold IC50: mouse liver microsomes, initial screen n=1; for Percent control catalytic activity at estimated IC50: compounds without reported IC50 at 1 µM; for Percent control catalytic activity at estimated 2-fold IC50: compounds without reported IC50 at 5 µM.
Description: (§1) Possums were collected from the Otago Peninsula (Dunedin) and the Okuti Valley, Banks Peninsula (Christchurch) in New Zealand in collaboration with the Otago Peninsula Biodiversity Group and Manaaki Whenua-Landcare Research, respectively. […] Possums were caged and humanely killed by a blow to the head, and the livers were harvested, snap-frozen in liquid nitrogen, and stored in a freezer at −80 °C until the preparation of microsomal fractions. […] Mice were euthanised by carbon dioxide inhalation and the livers were removed and microsomes prepared. […] The livers from avian species (mallards and a swan) were kindly donated by a local bird hunting group based in Dunedin, New Zealand. The livers from avian species were treated similarly to those mentioned above for the possum samples.
(§2) Microsomal preparation was carried out as previously described [76]. […] All procedures were performed at 0–4 °C. The liver samples were minced and homogenised in Buffer A (0.1 M Tris, 0.1 M potassium chloride, 1 mM EDTA, and 20 μM butylated hydroxytoluene, at pH = 7.4) using the Teflon-glass homogeniser (5–6 vertical passes). The samples were centrifuged at 10,000× g for 20 min. The supernatant was then transferred into another set of centrifuge tubes and spun at 100,000× g for 60 min. The pellet was resuspended in Buffer B (0.1 M potassium pyrophosphate, 1 mM EDTA, and 20 μM butylated hydroxytoluene, at pH = 7.4), homogenised, and recentrifuged at 100,000× g for 60 min. Finally, the pellet was homogenised in 1–2 mL of Buffer C (10 mM Tris-HCl, 1 mM EDTA, and 4% glycerol (v/v)), and stored at −80 °C until use. The protein concentration of the microsomes was determined using the bicinchoninic acid (BCA) method [77].
(§3) CYP3A catalytic activity was determined using the erythromycin N-demethylation activity assay, as described [78]. The reaction mixture (final volume of 1 mL and final protein concentration of 1 mg) contained 500 µL of microsomes in 0.1 M phosphate buffer (pH 7.4) and 400 µL of erythromycin buffer (0.45 mM), and 50 µL of the test compound was pre-warmed at 37 °C for 2 min. The reaction was initiated with 50 µL of 2.5 mM nicotinamide adenine dinucleotide phosphate (NADP^+) and incubated for 30 min at 37 °C. […] The tubes were vortexed and left for 5 min (at room temperature), and then 330 µL of saturated barium hydroxide was added. The tubes were further vortexed and left for 5 min (at room temperature). The tubes were then centrifuged at 1800× g for 10 min. To 830 µL of the supernatant, 330 µL of Nash reagent (30% (w/v) ammonium acetate, 0.4% (v/v) acetylacetone) was added and further incubated for 30 min at 60 °C. The blank tube contained 330 µL of Nash reagent and 830 µL of Milli-Q water. […] The CYP3A activities were determined in nmol/mg/min using standard curve data. Results presented are the mean ± SEM of 3 independent experiments performed in duplicate unless otherwise stated.

The test system of data set [5] is UGT2B (heading: UGT2B4). Description: in vitro. Particulars: human, pH 7.4.
Data set [6] deals with UGT2B (heading: UGT2B4). Nature of the data set: p-nitrophenol glucuronidation activity in possum liver microsomes. The class given is biochemical, possum (Trichosurus vulpecula). The settings on record: possum (Trichosurus vulpecula).
In data set [7] the test system is UGT2B. The description is as above. It counts as biochemical, possum (Trichosurus vulpecula). Particulars: compound at estimated 2-fold IC50.
Data set [8] has as its system UGT2B. Description: p-nitrophenol glucuronidation activity in mouse liver microsomes.
The subject of data set [9] is UGT2B (heading: UGT2B4). Description: in vitro. The settings on record: BALB/c, mouse, pH 7.4.
Data set [10] relates to CYP3A. Nature of the data set: CYP3A catalytic activity (erythromycin N-demethylation) in possum liver microsomes. The settings on record: for Percent control catalytic activity at estimated IC50 / Percent control catalytic activity at estimated 2-fold IC50: possum liver microsomes, initial screen n=1; for Percent control catalytic activity at estimated IC50: compounds without reported IC50 at 1 µM; for Percent control catalytic activity at estimated 2-fold IC50: compounds without reported IC50 at 5 µM.

The test system of data set [11] is UGT2B (heading: UGT2B4). Nature of the data set: p-nitrophenol glucuronidation activity in pooled human liver microsomes. The settings on record: human, pooled human liver microsomes (50 donors), pH 7.4, probe p-nitrophenol (0.5 mM final, from 50 µL of 5 mM in 500 µL).
Data set [12] relates to UGT2B (heading: UGT2B4). Nature of the data set: p-nitrophenol glucuronidation activity in mouse liver microsomes. The settings on record: BALB/c, mouse, liver microsomes, pH 7.4, probe p-nitrophenol (0.5 mM final, from 50 µL of 5 mM in 500 µL).
The test system of data set [13] is CYP3A. Description: CYP3A catalytic activity (erythromycin N-demethylation) in pooled human liver microsomes. Particulars: compound at estimated 2-fold IC50 (5 µM where none reported).
Description: as §3
Data set [14] concerns CYP3A. Particulars: avian; compound at estimated 2-fold IC50 (5 µM where none reported).
Description: as §1, §2, §3
Data set [15] relates to UGT2B4, UGT2B7, UGT2B15, and UGT2B17. Particulars: cited from earlier work.
The subject of data set [16] is UGT isoforms of the UGT1 and UGT2B families. Set-up: method as in PMID 25008344. The settings on record: pooled human liver and intestinal microsomes; read-out: concentration reducing glucuronidation of 4-methylumbelliferone by ~50% of the control; cited from earlier work.
[17] abbreviates: pooled human liver microsomes, compound at estimated 2-fold IC50.
Where [18] appears, read: liver microsomes, pH 7.4, probe p-nitrophenol (0.5 mM final, from 50 µL of 5 mM in 500 µL), compound at estimated IC50, read-out: % of control (UGT2B4 catalytic activity at IC50).
Setting [19] is: mouse, compound at estimated 2-fold IC50.
[20] abbreviates: pH 7.4, compound at estimated IC50, read-out: % of control (UGT2B4 catalytic activity at IC50).
The mark [21] stands for this setting: mouse, compound at estimated 2-fold IC50 (5 µM where none reported).
The mark [22] stands for this setting: possum, compound at estimated 2-fold IC50 (5 µM where none reported).

For the compound `CC(=O)O[C@H](CC=C(C)C)C1=CC(=O)c2c(O)ccc(O)c2C1=O` [Acetylshikonin], the “% of control (UGT2B4 catalytic activity at 2-fold IC50)” value in the data set on UGT2B [1] was 84 % of control; with UGT2B [3] (setting [17]), 100 % of control; in the data set on UGT2B [7], 101 % of control; with UGT2B [8] (setting [19]), 94 % of control. In addition, the “UGT2B4 catalytic activity at 2-fold IC50” value with UGT2B [1] was 0.53 ± 0.08 µmol/mg/min; in the data set on UGT2B [3] (setting [17]) it was 3.70 µmol/mg/min; in the data set on UGT2B [7] it was 3.70 ± 0.18 µmol/mg/min; with UGT2B [8] (setting [19]), 2.92 ± 0.22 µmol/mg/min. Besides, the activity at 30 min was 87% in the data set with UGT2B (heading: UGT2B4) [2] and 96% in the data set on UGT2B (heading: UGT2B4) [6] (setting [18]). For the same compound, the “Percent control catalytic activity at estimated IC50” value is recorded as 100 percent control in the data set on CYP3A [4] and 128 percent control in the data set with CYP3A [10]. The “Percent control catalytic activity at estimated 2-fold IC50” value is 93 percent control in the data set with CYP3A [4] and 112 percent control with CYP3A [10]. Further, the results for the activity in the data set on UGT2B (heading: UGT2B4) [5] and in the data set on UGT2B (heading: UGT2B4) [9] were 98% and 93%, respectively.
As to `O=c1cc(-c2ccccc2)oc2cc(O)c(O)c(O)c12` [Baicalein], the “% of control (UGT2B4 catalytic activity at 2-fold IC50)” value in the data set with UGT2B [1] is recorded as 44 % of control; in the data set on UGT2B [7], 106 % of control; in the data set with UGT2B [8], 95. Besides, the “UGT2B4 catalytic activity at 2-fold IC50” value is 0.17 ± 0.06 µmol/mg/min in the data set on UGT2B [1], 3.95 in the data set on UGT2B [3], 3.91 ± 0.20 µmol/mg/min in the data set with UGT2B [7] and 3.08±0.04 in the data set on UGT2B [8]. Further, the activity at 30 min in the data set on UGT2B (heading: UGT2B4) [2] was 56%; in the data set on UGT2B (heading: UGT2B4) [6] (setting [20]) it was 105%. The “Percent control catalytic activity at estimated IC50” value in the data set on CYP3A [4] is reported as 114 percent control; with CYP3A [10] it was 102 percent control. The “Percent control catalytic activity at estimated 2-fold IC50” value with CYP3A [4] is 99 percent control; in the data set with CYP3A [10], 112 percent control. In addition, the activity with UGT2B (heading: UGT2B4) [5] came out at 97%; with UGT2B (heading: UGT2B4) [9], 96%.
On to `CC(C)=CCC[C@](C)(O[C@@H]1O[C@H](CO)[C@@H](O)[C@H](O)[C@H]1O)[C@H]1CC[C@]2(C)[C@@H]1[C@H](O)C[C@@H]1[C@@]3(C)CC[C@H](O)C(C)(C)[C@@H]3[C@@H](O)C[C@]12C` [Ginsenoside F1], for which the “% of control (UGT2B4 catalytic activity at 2-fold IC50)” value is on record as 99 % of control in the data set with UGT2B [1], 100 % of control with UGT2B [3] (setting [17]), 109 % of control with UGT2B [7] and 157 % of control with UGT2B [8] (setting [19]). For the same compound, the “UGT2B4 catalytic activity at 2-fold IC50” value is 0.66 ± 0.14 µmol/mg/min in the data set with UGT2B [1], 4.01 µmol/mg/min with UGT2B [3] (setting [17]), 4.14 ± 0.18 µmol/mg/min with UGT2B [7] and 4.36 ± 0.01 µmol/mg/min with UGT2B [8] (setting [19]). For the same compound, the activity at 30 min in the data set on UGT2B (heading: UGT2B4) [2] is 110%; in the data set with UGT2B (heading: UGT2B4) [6] (setting [18]) it was 100%. The “Percent control catalytic activity at estimated IC50” value is recorded as 82 percent control in the data set with CYP3A [4] and 120 percent control with CYP3A [10]. Moreover, the activity with UGT2B (heading: UGT2B4) [5] was determined as 101%; in the data set on UGT2B (heading: UGT2B4) [9] it was 132%.
Turning to `O=C(/C=C/C=C/c1ccc2c(c1)OCO2)N1CCCCC1` [Piperine], the “% of control (UGT2B4 catalytic activity at 2-fold IC50)” value is listed as 86 % of control with UGT2B [1], 92 in the data set with UGT2B [3], 103 % of control in the data set on UGT2B [7] and 99 in the data set with UGT2B [8]. Further, the “UGT2B4 catalytic activity at 2-fold IC50” value is 0.55 ± 0.06 µmol/mg/min in the data set on UGT2B [1], 3.62 with UGT2B [3], 4.29 ± 0.17 µmol/mg/min in the data set on UGT2B [7] and 2.70±0.07 in the data set with UGT2B [8]. For the same compound, the activity at 30 min in the data set on UGT2B (heading: UGT2B4) [2] is 84%; with UGT2B (heading: UGT2B4) [11] it was 94%; in the data set on UGT2B (heading: UGT2B4) [6] (setting [20]) it was 103%; in the data set with UGT2B (heading: UGT2B4) [12] it was 113%. Besides, the “Percent control catalytic activity at estimated IC50” value is listed as 126 percent control with CYP3A [4] and 127 percent control with CYP3A [10]. Besides, the “Percent control catalytic activity at estimated 2-fold IC50” value in the data set with CYP3A [4] was 107 percent control; in the data set with CYP3A [10] it was 121 percent control.
`Nc1ccc(S(=O)(=O)Nc2ccnn2-c2ccccc2)cc1` [Sulfaphenazole]: the “% of control (UGT2B4 catalytic activity at 2-fold IC50)” value with UGT2B [1] is 74 % of control; with UGT2B [3], 98; with UGT2B [7] it was 99 % of control; in the data set on UGT2B [8] (setting [19]), 94 % of control. For the same compound, the “UGT2B4 catalytic activity at 2-fold IC50” value in the data set on UGT2B [1] was 0.57 ± 0.14 µmol/mg/min; in the data set on UGT2B [3], 3.38 µmol/mg/min; in the data set on UGT2B [7] it was 3.59 ± 0.23 µmol/mg/min; with UGT2B [8], 2.27 ± 0.02 µmol/mg/min. Moreover, the results for the activity at 30 min with UGT2B (heading: UGT2B4) [2], in the data set with UGT2B (heading: UGT2B4) [6] (setting [18]) and in the data set on UGT2B (heading: UGT2B4) [12] were 74%, 105% and 103%, respectively. Also, the “Percent control catalytic activity at estimated IC50” value in the data set on CYP3A [4] was 96 percent control; in the data set on CYP3A [10], 93 percent control. Also, the “Percent control catalytic activity at estimated 2-fold IC50” value was 100 percent control in the data set on CYP3A [4] and 84 percent control in the data set with CYP3A [10]. The “% of control (catalytic activity at 2-fold IC50)” value in the data set on CYP3A [4] (setting [21]) was 109 % of control; with CYP3A [13], 105 % of control; in the data set on CYP3A [14], 110 % of control; in the data set with CYP3A [10] (setting [22]) it was 111 % of control. Also, the “Catalytic activity at 2-fold IC50” value with CYP3A [4] (setting [21]) was 0.68 ± 0.06 nmol/mg/min; in the data set with CYP3A [13], 0.47 nmol/mg/min; with CYP3A [14] it was 0.33 ± 0.06 nmol/mg/min; with CYP3A [10] (setting [22]), 0.37 ± 0.04 nmol/mg/min. In addition, the activity in the data set on UGT2B (heading: UGT2B4) [5] was 102%.
For the compound `CC(C)(c1ccc(O)cc1)c1ccc(O)cc1` [bisphenol A], the type of inhibition entry in data set [15] (UGT2B4) is “competitive”; in data set [15] (UGT2B7, UGT2B15, and UGT2B17), “non-competitive”.
As for `COc1cc([C@@H]2Oc3ccc([C@H]4Oc5cc(O)cc(O)c5C(=O)[C@@H]4O)cc3O[C@H]2CO)ccc1O` [isosilybin B], in [16], the IC50 was 187 µM.
Take `COc1cc([C@@H]2Oc3cc([C@H]4Oc5cc(O)cc(O)c5C(=O)[C@@H]4O)ccc3O[C@H]2CO)ccc1O` [silybin B]: the IC50 in [16] is 87 µM.
